Reference: patent US20240407413A1, “Concentrates Compromising Stevia Blends and Uses” (The Coca-Cola Company, priority 2018, published 2024)

Tests used:
[1] = Appearance of 0.3 wt % syrup concentrates diluted from super concentrates; format: physicochemical; conditions: 0.3 wt % (5.5+1 syrup concentration) in water, mixed at room temperature for 90 hours
Method: The final syrup concentrations are provided below:
The 2 wt % super concentrates were then diluted to a 5.5+1 syrup concentration (0.3 wt %) with water and mixed at room temperature for 90 hours.

[2] = Solubility in mock syrup system (0.3%); format: physicochemical

Row | SMILES | Observations [1] | Solubility in Syrup System (0.3%) ([2]; 500 ppm in citric buffer) | Solubility in Syrup System (0.3%) ([2]; 512 ppm in citric buffer)
1 | C=C1C[C@@]23CC[C@H]4[C@@](C)(CCC[C@@]4(C)C(=O)O[C@@H]4O[C@H](CO)[C@@H](O)[C@H](O[C@@H]5O[C@H](CO)[C@@H](O)[C@H](O)[C@H]5O)[C@H]4O[C@@H]4O[C@@H](C)[C@H](O)[C@@H](O)[C@H]4O)[C@@H]2CC[C@]1(O[C@@H]1O[C@H](CO)[C@@H](O)[C@H](O[C@@H]2O[C@H](CO)[C@@H](O)[C@H](O)[C@H]2O)[C@H]1O[C@@H]1O[C@H](CO)[C@@H](O)[C@H](O)[C@H]1O)C3 [Reb N] | cloudy | – | –
2 | C=C1C[C@@]23CCC4[C@](C)(C(=O)OC5OC(CO)C(O)C(OC6OC(CO)C(O)C(O)C6O)C5OC5OC(CO)C(O)C(O)C5O)CCC[C@@]4(C)[C@@H]2CCC1(OC1OC(CO)C(O)C(OC2OC(CO)C(O)C(O)C2O)C1OC1OC(CO)C(O)C(O)C1O)C3 (stereo partly drawn) [Reb-M, 13-[(2-O-β-D-glucopyranosyl-3-O-β-D-glucopyranosyl-β-D-glucopyranosyl)oxy] ent kaur-16-en-19-oic acid-[(2-O-β-D-glucopyranosyl-3-O-β-D-glucopyranosyl-β-D-glucopyranosyl) ester]] | – | No | No
